Experimental findings from patent US20110130380A1, “Heteroaryl Kinase Inhibitors” (priority 2009, published 2011) are described below.

Where only a bound is given, the exact number is not on record here.

For one test, the target named is Cdk9/cyclinT1 (Homo sapiens, UniProt P50750). Kind of test: Cdk9/cyclinT1 IMAP Protocol (fluorescence polarization kinase assay). Particulars: Cdk9_cyclinT1_IC50, Table V; generated using one of the two Cdk9/cyclinT1 assays (IMAP or Alpha Screen), not stated which; ATP 6 uM.
Cdk9/cyclinT1, sequence (P50750 whole entry): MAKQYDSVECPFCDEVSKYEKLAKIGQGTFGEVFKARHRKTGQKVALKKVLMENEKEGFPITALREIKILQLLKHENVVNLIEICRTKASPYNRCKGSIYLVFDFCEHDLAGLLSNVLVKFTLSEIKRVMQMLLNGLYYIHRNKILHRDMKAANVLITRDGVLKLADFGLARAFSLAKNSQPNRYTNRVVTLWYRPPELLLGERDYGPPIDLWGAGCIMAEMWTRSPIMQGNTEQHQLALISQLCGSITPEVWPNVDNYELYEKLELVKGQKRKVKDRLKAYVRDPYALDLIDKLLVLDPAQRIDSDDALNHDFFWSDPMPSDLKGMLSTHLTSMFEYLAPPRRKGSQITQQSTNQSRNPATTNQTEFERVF
Cdk9/cyclinT1, sequence (O60563 whole entry partner): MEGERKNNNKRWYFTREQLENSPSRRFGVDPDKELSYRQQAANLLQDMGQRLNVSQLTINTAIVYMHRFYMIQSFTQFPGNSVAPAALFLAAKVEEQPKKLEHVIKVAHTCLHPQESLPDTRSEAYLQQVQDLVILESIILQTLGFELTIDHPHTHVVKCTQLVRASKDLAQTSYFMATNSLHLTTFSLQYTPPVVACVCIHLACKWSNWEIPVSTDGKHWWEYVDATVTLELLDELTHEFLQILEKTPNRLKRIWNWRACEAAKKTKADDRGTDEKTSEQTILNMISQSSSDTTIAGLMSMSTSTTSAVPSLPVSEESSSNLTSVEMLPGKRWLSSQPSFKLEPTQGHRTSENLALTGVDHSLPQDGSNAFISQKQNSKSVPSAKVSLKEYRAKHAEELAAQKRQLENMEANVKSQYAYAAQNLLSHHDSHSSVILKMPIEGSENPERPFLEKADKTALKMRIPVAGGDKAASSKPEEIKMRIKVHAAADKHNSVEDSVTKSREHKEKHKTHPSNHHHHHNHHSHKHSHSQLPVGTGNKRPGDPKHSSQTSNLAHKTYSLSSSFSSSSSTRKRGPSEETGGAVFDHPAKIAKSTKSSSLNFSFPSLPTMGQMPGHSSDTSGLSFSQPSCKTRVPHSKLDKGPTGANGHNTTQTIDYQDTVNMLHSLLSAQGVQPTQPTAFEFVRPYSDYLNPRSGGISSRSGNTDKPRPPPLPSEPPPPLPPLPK
Broadly, the IC50 is the midpoint of a concentration-inhibition curve. For the molecule `O=C(Nc1cc(-c2nc(NCC3CCOCC3)ccc2Cl)c(Cl)cn1)[C@H]1CNCCO1` [Example 101, (R)-Morpholine-2-carboxylic acid {3,5′-dichloro-6-[(tetrahydro-pyran-4-ylmethyl)-amino]-[2,4′]bipyridinyl-2′-yl}-amide], half-maximal inhibition (IC50) was put at 8 nM.

In turn, `O=C(Nc1cc(-c2cccc(NCC3CCS(=O)(=O)CC3)n2)c(Cl)cn1)[C@@H]1CCCNC1` [Example 12, (R)-piperidine-3-carboxylic acid {5′-chloro-6-[(1′,1′-dioxo-hexahydro-1-thiopyran-4-ylmethyl)-amino]-[2,4′]bipyridinyl-2′-yl}-amide] had an IC50 below 8 nM.

`O=C(Nc1cc(-c2nc(NCC3CCOCC3)ccc2Cl)c(Cl)cn1)C1CCOCC1` [Example 97, Tetrahydro-pyran-4-carboxylic acid {3,5′-dichloro-6-[(tetrahydro-pyran-4-ylmethyl)-amino]-[2,4′]bipyridinyl-2′-yl}-amide] displayed an IC50 of 10 nM.

In turn, `O=C(Nc1cc(-c2cccc(NCC3CCCOC3)n2)c(Cl)cn1)[C@H]1CCCNC1` (stereo partly drawn) [Example 46, (S)-Piperidine-3-carboxylic acid {5′-chloro-6-[(tetrahydro-pyran-3-ylmethyl)-amino]-[2,4′]bipyridinyl-2′-yl}-amide] came in with an IC50 of 56 nM.

As to `O=C(Nc1cc(-c2cccc(NCC3CCOCC3)n2)c(Cl)cn1)[C@H]1CNC[C@H]1F` [Example 85, (3R,4S)-4-Fluoro-pyrrolidine-3-carboxylic acid {5′-chloro-6-[(tetrahydro-pyran-4-ylmethyl)-amino]-[2,4′]bipyridinyl-2′-yl}-amide], the IC50 stood at 16 nM.

Consider `O=C(Nc1cc(-c2cccc(NCC3CCOCC3)n2)c(Cl)cn1)C1(F)CCCNC1` (stereo not drawn) [Example 95, 3-Fluoro-piperidine-3-carboxylic acid {5′-chloro-6-[(tetrahydro-pyran-4-ylmethyl)-amino]-[2,4′]bipyridinyl-2′-yl}-amide], for which the concentration for half-maximal inhibition (IC50) was determined as 167 nM.

In the case of `CCS(=O)(=O)N1CCC[C@H](C(=O)Nc2cc(-c3cccc(NCC4CCOCC4)n3)c(Cl)cn2)C1` [Example 92, (S)-1-Ethanesulfonyl-piperidine-3-carboxylic acid {5′-chloro-6-[(tetrahydro-pyran-4-ylmethyl)-amino]-[2,4′]bipyridinyl-2′-yl}-amide], the IC50 is below 8 nM.

`CS(=O)(=O)N1CCC[C@H](C(=O)Nc2cc(-c3nc(NCC4CCOCC4)ccc3Cl)c(Cl)cn2)C1` [Example 108, (S)-1-Methanesulfonyl-piperidine-3-carboxylic acid {3,5′-dichloro-6-[(tetrahydro-pyran-4-ylmethyl)-amino]-[2,4′]bipyridinyl-2′-yl}-amide]: the IC50 is below 8 nM.

As to `O=C(Nc1cc(-c2nc(NCC3CCOCC3)ccc2Cl)c(F)cn1)[C@H]1CNCCO1` [Example 124, (R)-Morpholine-2-carboxylic acid {3-chloro-5′-fluoro-6-[(tetrahydro-pyran-4-ylmethyl)-amino]-[2,4′]bipyridinyl-2′-yl}-amide], the IC50 was 30 nM.

The molecule `CC[C@@H]1CC[C@@H](C(=O)Nc2cc(-c3cccc(NCC4CCOCC4)n3)c(Cl)cn2)CN1` (single isomer, unassigned) [Example 240] registered an IC50 of 1 nM.

As to `O=C(Nc1cc(-c2cccc(NCC3CCOCC3)n2)c(Cl)cn1)C1CNCCO1` (stereo not drawn) [Example 13, Morpholine-2-carboxylic acid {5′-chloro-6-[(tetrahydro-pyran-4-ylmethyl)-amino]-[2,4′]bipyridinyl-2′-yl}-amide], the IC50 came to 16 nM.

For the molecule `CC1(C)C[C@@H](CNc2cccc(-c3cc(NC(=O)[C@@H]4CCNC4)ncc3Cl)n2)CCO1` [Example 260, (R)-Pyrrolidine-3-carboxylic acid {5′-chloro-6-[((S)-2,2-dimethyl-tetrahydro-pyran-4-ylmethyl)-amino]-[2,4′]bipyridinyl-2′-yl}-amide], half-maximal inhibition (IC50) required 1 nM.

With `O=C(Nc1cc(-c2cccc(NCc3cc(F)cc(F)c3)n2)c(Cl)cn1)[C@@H]1CCCNC1` [Example 80, (R)-Piperidine-3-carboxylic acid [5′-chloro-6-(3,5-difluoro-benzylamino)-[2,4′]bipyridinyl-2′-yl]-amide], the IC50 is below 8 nM.

In turn, `COCCNc1cccc(-c2cc(NC(=O)[C@@H]3CCCNC3)ncc2Cl)n1` [Example 26, (R)-Piperidine-3-carboxylic acid [5′-chloro-6-(2-methoxy-ethylamino)-[2,4′]bipyridinyl-2′-yl]-amide] showed an IC50 of 32 nM.

`C[C@@H]1CC[C@H](C(=O)Nc2cc(-c3cccc(NCC4CCOCC4)n3)c(Cl)cn2)CN1` (single isomer, unassigned) [Example 142] returned an IC50 of 151 nM.

Molecule `O=C(Nc1cc(-c2nc(NCC3CCOCC3)ccc2F)c(Cl)cn1)[C@H]1CNCCO1` [Example 158, (R)-Morpholine-2-carboxylic acid {5′-chloro-3-fluoro-6-[(tetrahydro-pyran-4-ylmethyl)-amino]-[2,4′]bipyridinyl-2′-yl}-amide] showed an IC50 of 5 nM.

As to `CC1(C)COC[C@@H](CNc2nc(-c3cc(NC(=O)[C@@H]4CCCNC4)ncc3Cl)ccc2F)O1` (single isomer, unassigned) [Example 263], it took 1 nM to reach half-maximal inhibition (IC50).

Consider `C[C@@H](Nc1cccc(-c2cc(NC(=O)[C@@H]3CCCNC3)ncc2Cl)n1)C1CCCCC1` [Example 76, (R)-Piperidine-3-carboxylic acid [5′-chloro-6-((R)-1-cyclohexyl-ethylamino)-[2,4′]bipyridinyl-2′-yl]-amide], for which the IC50 came out at 15 nM.

`COC[C@H]1C[C@@H](C(=O)Nc2cc(-c3cccc(NCC4(C)CCOCC4)n3)c(Cl)cn2)CN1` [Example 246, (3R,5R)-5-Methoxymethyl-pyrrolidine-3-carboxylic acid {5′-chloro-6-[(4-methyl-tetrahydro-pyran-4-ylmethyl)-amino]-[2,4′]bipyridinyl-2′-yl}-amide] yielded a 50% inhibitory concentration (IC50) of 6 nM.

For the molecule `CC1(C)C[C@H](CNc2cccc(-c3cc(NC(=O)[C@@H]4CCCNC4)ncc3Cl)n2)CCO1` (single isomer, unassigned) [Example 115], the midpoint of inhibition, the IC50, lay at 1 nM.

Regarding `CN1CC(C(=O)Nc2cc(-c3cccc(NCC4CCOCC4)n3)c(Cl)cn2)CC1=O` (stereo not drawn) [Example 60, 1-Methyl-5-oxo-pyrrolidine-3-carboxylic acid {5′-chloro-6-[(tetrahydro-pyran-4-ylmethyl)-amino]-[2,4′]bipyridinyl-2′-yl}-amide], half-maximal inhibition (IC50) required 9 nM.

Consider `CC1(C)CC(CNc2cccc(-c3cc(NC(=O)C4CNCCOC4)ncc3Cl)n2)CCO1` (stereo not drawn) [Example 202, [1,4]Oxazepane-6-carboxylic acid {5′-chloro-6-[(2,2-dimethyl-tetrahydro-pyran-4-ylmethyl)-amino]-[2,4′]bipyridinyl-2′-yl}-amide], for which half-maximal inhibition (IC50) required 2 nM.

`O=C(Nc1cc(-c2ccc(F)c(NCC3CCOCC3)n2)c(Cl)cn1)[C@@H]1CCCNC1` [Example 135, (R)-Piperidine-3-carboxylic acid {5′-chloro-5-fluoro-6-[(tetrahydro-pyran-4-ylmethyl)-amino]-[2,4′]bipyridinyl-2′-yl}-amide]: half-maximal inhibition (IC50) required 1 nM.

The same test, now with this note: Cdk9_cyclinT1_IC50, generated using one of the two Cdk9/cyclinT1 assays (IMAP or Alpha Screen), not specified per value; ATP 6 uM.
Consider `O=C(Nc1cc(-c2cccnc2)c(Cl)cn1)[C@@H]1CCCNC1` [Example 305, (R)-Piperidine-3-carboxylic acid (5′-chloro-[3,4′]bipyridinyl-2′-yl)-amide], for which it took 376 nM to reach half-maximal inhibition (IC50).
